Data taken from paper PMC8847695 (Frontiers in Chemistry, 2022).

Key:
Type in all cases: binding
Details in all cases: 1 = hit, 0 = no hit
[1] = target: AAK1 (121-471) (Homo sapiens, UniProt Q2M2I8); experiment: STD-NMR fragment screening, AAK1
Procedure: (§1) All fragments were stored at −20°C as solids in argon flushed glass bottles. For NMR screening, fragments were weighed and dissolved in DMSO-d6 to a stock concentration of 300 mM. Mother plates were prepared with a 100 mM concentration. From these plates, daughter plates were prepared with the fragments mixed in the plates to a concentration of 50 mM for each fragment. Daughter plates were opened a maximum of eight times. The plates were argon flushed and sealed with a HT121TS (HTA) and Foil Heat Seal (Biozym).
(§2) For long time measurements, like the protein ^1H NMR spectrum, the buffer exchange was performed twice to reduce residual buffer peaks. All experiments were performed on a Bruker Avance III HDX 700 instrument, equipped with a 5 mm Prodigy TCI cryo-probehead. For every protein, a standard ^1H NMR experiment with 1 k scans and water suppression through presaturation was performed. […] The on-resonance frequency, which was determined from the ^1H NMR spectra of the protein, was between 0.5 and 0.6 ppm; 40 ppm was used as the off-resonance frequency. For an interleaved acquisition of the on- and off-resonance, a pseudo-2D scheme was applied. The saturation was done by Gaussian pulses with a length of 50 ms and 60 dB of attenuation, with an interpulse delay of 1 ms leading to an excitation bandwidth of about 42 Hz. The screening was done with 16 scans of on- and off-resonance scans each, with a 3 s saturation time. The samples contained final concentrations of 20 µM protein, 10% (^V/V) DMSO-d6, and 1 mM of each of the two fragments. A ^1H-NMR experiment was performed for each compound to act as a reference spectrum in the STD experiments. All NMR experiments were carried out at 25°C.
(§3) Fifteen of these compounds contain the same halogen twice. No compound bears mixtures of different halogen atoms. Four proteins (AAK1, CAMK1G, IDO1, and DOT1L) were screened against this HEFLib using STD-NMR. A fragment was considered a hit if the peak intensity in the difference spectrum was three times higher than the local background noise. […] Chemical compatibility and peak complementarity were assured for these mixtures. Samples containing more than two fragments were avoided to minimize the possible target competition and to decrease the risk of fragment interactions. […] The ^1H reference NMR spectrum of the mixture is shown in red for comparison. […] As fragment mixtures can lead to competitive effects between their fragments, it is not advised to use the quantification of peak mixtures for hit ranking.

[2] = target: T1, CAMK1G (1-320) (Homo sapiens, UniProt Q96NX5); experiment: STD-NMR fragment screening, CAMK1G
T1 construct: made in house; host or cells: E. coli BL21 (DE3) pLysS
Procedure: as §1, §2, §3

[3] = target: T2, IDO1 (1-435) (Homo sapiens, UniProt P14902); experiment: STD-NMR fragment screening, IDO1
T2 construct: His-tag of pET15b with TEV site (thrombin site replaced) (cleaved yes); made in house; host or cells: E. coli Rosetta 2 (DE3) pLysS
Procedure: as §1, §2, §3

[4] = target: T3, DOT1L (1-416) (Homo sapiens, UniProt Q8TEK3); experiment: STD-NMR fragment screening, DOT1L
T3 construct: made in house; host or cells: E. coli BL21 (DE3) pLysS
Procedure: as §1, §2, §3

T1 sequence (Q96NX5 1-320): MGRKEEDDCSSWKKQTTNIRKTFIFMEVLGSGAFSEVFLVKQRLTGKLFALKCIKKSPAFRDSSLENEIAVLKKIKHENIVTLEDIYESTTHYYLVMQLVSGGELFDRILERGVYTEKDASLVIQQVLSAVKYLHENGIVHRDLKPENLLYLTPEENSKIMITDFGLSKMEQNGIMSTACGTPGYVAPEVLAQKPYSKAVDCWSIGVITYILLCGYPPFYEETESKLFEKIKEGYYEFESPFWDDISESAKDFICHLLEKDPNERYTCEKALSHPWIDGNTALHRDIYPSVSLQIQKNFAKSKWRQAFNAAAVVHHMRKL
T2 sequence (P14902 whole entry, the tested form may be a part): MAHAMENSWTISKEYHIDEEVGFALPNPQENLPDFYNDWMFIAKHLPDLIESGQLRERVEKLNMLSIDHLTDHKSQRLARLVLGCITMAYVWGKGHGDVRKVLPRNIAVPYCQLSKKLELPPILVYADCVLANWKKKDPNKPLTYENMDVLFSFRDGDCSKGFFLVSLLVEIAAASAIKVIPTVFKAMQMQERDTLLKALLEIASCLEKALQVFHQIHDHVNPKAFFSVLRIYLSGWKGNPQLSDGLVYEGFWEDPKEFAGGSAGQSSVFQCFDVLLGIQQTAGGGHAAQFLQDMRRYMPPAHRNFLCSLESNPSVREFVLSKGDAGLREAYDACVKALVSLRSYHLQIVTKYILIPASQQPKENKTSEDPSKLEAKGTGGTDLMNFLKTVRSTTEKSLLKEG
T3 sequence (Q8TEK3 1-416): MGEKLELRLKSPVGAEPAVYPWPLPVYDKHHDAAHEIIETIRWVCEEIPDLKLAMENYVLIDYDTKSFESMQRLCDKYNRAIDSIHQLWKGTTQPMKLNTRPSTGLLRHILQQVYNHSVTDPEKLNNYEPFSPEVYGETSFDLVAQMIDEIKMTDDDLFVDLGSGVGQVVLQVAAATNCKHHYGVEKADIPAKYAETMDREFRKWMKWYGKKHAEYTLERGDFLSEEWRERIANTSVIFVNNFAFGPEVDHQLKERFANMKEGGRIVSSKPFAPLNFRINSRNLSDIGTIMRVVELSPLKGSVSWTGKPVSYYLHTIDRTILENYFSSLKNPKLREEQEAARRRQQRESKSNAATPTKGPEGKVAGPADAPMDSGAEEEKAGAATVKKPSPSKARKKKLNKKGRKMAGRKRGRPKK
Sequence of AAK1 (121-471) (Q2M2I8 46-315 limits assumed): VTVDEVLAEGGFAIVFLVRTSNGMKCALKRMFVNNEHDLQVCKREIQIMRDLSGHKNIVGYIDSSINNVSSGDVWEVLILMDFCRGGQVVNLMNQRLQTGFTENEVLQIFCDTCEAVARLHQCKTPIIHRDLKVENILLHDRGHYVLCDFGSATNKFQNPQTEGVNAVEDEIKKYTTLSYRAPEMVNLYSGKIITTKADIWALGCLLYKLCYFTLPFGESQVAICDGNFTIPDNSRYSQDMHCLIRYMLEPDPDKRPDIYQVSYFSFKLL

SMILES	AAK1 (STD-NMR hit flag) [1]	CAMK1G (STD-NMR hit flag) [2]	IDO1 (STD-NMR hit flag) [3]	DOT1L (STD-NMR hit flag) [4]
CN1CCN(C(CN)c2ccccc2Cl)CC1 (stereo not shown) [Fragment B02290483]	0	0	0	0
Nc1c(Cl)ncnc1NC1CC1 [Fragment B02291230]	1	1	0	0
OB(O)c1ccncc1Br [Fragment B02297399]	0	0	0	0
FC(F)(F)c1cnc(Cl)nc1 [Fragment B02294482]	0	0	0	0
Cn1nc(Br)nc1NN [Fragment B02290120]	0	1	0	1
N#Cc1n[nH]cc1Br [Fragment B02290464]	1	1	1	0
Nc1ncc(F)cc1I [Fragment B02291238]	0	0	0	0
COc1nc(N)ncc1I [Fragment B02289608]	1	1	0	0
Cn1c2nc(Cl)nc-2c(O)n(C)c1=O [Fragment B02291216]	1	1	1	0
Clc1nsnc1N1CCOCC1 [Fragment B02297414]	0	0	0	0
Cn1c(Cl)c(C#N)c(=O)n(C)c1=O [Fragment B02291234]	1	1	1	1
Cn1c2nc(Br)nc-2c(O)n(C)c1=O [Fragment B02291266]	1	1	1	0
O=C(O)c1sccc1Cl [Fragment B02297398]	0	0	0	0
Brc1csc(CN2CCNCC2)c1 [Fragment B02290122]	0	0	0	0
CN(N)c1ncc(C(F)(F)F)cc1Cl [Fragment B02290089]	0	0	0	0
CN(C)S(=O)(=O)n1nccc1Br [Fragment B02290660]	1	0	0	1
Nc1nc(Cl)nc2[nH]cnc12 [Fragment B02290476]	0	0	0	0
Cc1nn(C)c(Cl)c1S(N)(=O)=O [Fragment B02290522]	1	0	1	0
O=C(c1ccc(Br)cc1)C12CN3CN(CN(C3)C1)C2 [Fragment B02290401]	0	0	0	0
COc1ncc(Br)cc1C(=O)O [Fragment B02297396]	0	0	0	0
Clc1cscn1 [Fragment B02290477]	0	0	0	0

Further lines, results first:

AAK1 (STD-NMR hit flag) [1]	CAMK1G (STD-NMR hit flag) [2]	IDO1 (STD-NMR hit flag) [3]	DOT1L (STD-NMR hit flag) [4]	SMILES
0	0	0	0	CCOC(=O)c1coc(Cl)n1 [Fragment B02289613]
0	0	0	0	O=C(O)Cc1ccc(Cl)nc1 [Fragment B02291249]
0	0	0	0	Clc1cccc2nnnn12 [Fragment B02291229]
0	0	0	0	Cc1ccc(Cl)c(CN)c1F [Fragment B02290525]
1	0	0	0	O=c1[nH]c2ccc(Cl)nc2[nH]1 [Fragment B02290474]
0	0	0	0	Nc1cccc(Br)c1O [Fragment B02289603]
0	0	0	0	NCc1cc(Cl)cc(Cl)c1N [Fragment B02290090]
1	1	1	1	CCC(N)c1ccc(Cl)cc1 (stereo not shown) [Fragment B02291270]
0	1	0	0	Cc1ncccc1Br [Fragment B02289619]
0	0	0	0	Nc1cc(Cl)cc([N+](=O)[O-])c1O [Fragment B02291244]
1	0	0	0	Cc1ccc(C(N)=O)c(Cl)n1 [Fragment B02291227]
1	1	0	0	Nc1ncnc(Cl)c1Cl [Fragment B02289621]
0	0	0	0	O=C1Nc2c(Cl)cccc2C1=O [Fragment B02290467]
0	0	1	0	O=c1ncc(Cl)c[nH]1 [Fragment B02297425]
1	1	1	0	Clc1cnc2ccccn12 [Fragment B02294486]
0	0	0	0	Nc1ccc(Cl)c(C(=O)O)c1 [Fragment B02291260]
